In general, pIC50 refers to the negative decadic logarithm of the IC50, by convention in mol/L. In general, IC50 refers to the concentration needed to halve the response being measured. The low end stands for greater potency in that assay, the high end for weaker potency in that assay. A word on the pEC50: it is −log10 of the EC50, conventionally taken in molar units. Lower therefore signals a large EC50.

Experiment [1] has as its system Ebolavirus. Briefly: Antiviral activity against Ebolavirus assessed as reduction in viral titer. The class given is functional. Particulars: Orthoebolavirus.
In experiment [2] the test system is Ebolavirus. The experiment in a line: Antiviral activity against Ebola virus Mayinga Zaire 1976 infected in IFNAR-/- C57BL/6 mouse assessed as survival at 300 mg/kg, po administered twice daily for 13 days measured after 3 weeks. The class given is functional. Particulars: Orthoebolavirus.
For experiment [3], the system named is Ebolavirus. The experiment in a line: Antiviral activity against Ebola virus Mayinga Zaire 1976 infected in IFNAR-/- C57BL/6 mouse at 300 mg/kg, po administered twice daily measured up to 6 days post infection. The class given is functional.
The test system of experiment [4] is Ebolavirus. The experiment in a line: Antiviral activity against Ebolavirus E718 infected in A129 interferon alpha/beta receptor knockout immunodeficient mouse assessed as survival rate at 150 mg/kg, po administered twice daily for 14 days measured after 2 weeks post last dose relative to control. Type of experiment: functional. Particulars: Orthoebolavirus, 336 h.

Experiment [5] in a line: Antiviral activity against Respiratory syncytial virus A2 infected in Hep2 cells. Type of experiment: functional, cell-based. Particulars: human respiratory syncytial virus, HEp-2.
Experiment [6] deals with Ebolavirus. Briefly: Antiviral activity against Ebola virus Mayinga Zaire 1976 infected in IFNAR-/- C57BL/6 mouse assessed as biochemical correlates of disease at 300 mg/kg, po administered twice daily. Type of experiment: functional.
Experiment [7] has as its system Ebolavirus. Briefly: Antiviral activity against Ebolavirus E718 infected in Vero E6 cells assessed as effective dose after 6 days by neutral red stain based microscopic method. Type of experiment: functional, Vero C1008.
A short description of experiment [8]: Antiviral activity against Foot-and-mouth disease virus O/JPN/2000 by plaque reduction assay. The class given is functional. (In general: In a plaque reduction assay, fewer plaques than in the control indicate reduced infectivity or spread.)

pEC50, pIC50: −log10 of the molar value. Values after ≈ are worked out from the molar mass of the structure shown.

For `NC(=O)c1nc(F)cnc1O` [FAVIPIRAVIR], the pIC50 in the experiment on Ebolavirus [1] was 4.17. For the same compound, the survival at 300 mg/kg in the experiment on Ebolavirus [2] was determined as 100%. In addition, the Activity in the experiment with Ebolavirus [3] turned out to be 100%; with Ebolavirus [6], 20%. For the same compound, the survival at 150 mg/kg with Ebolavirus [4] was found to be 100%. This compound also displayed an IC50 in experiment [5] of 41 µg/mL (≈ 261 µM). Further, the ED in the experiment on Ebolavirus [7] was 400 µM. Besides, the pEC50 in experiment [8] was 4.92.

The record behind these values is ChEMBL document CHEMBL4024736, “Recent progress on the treatment of Ebola virus disease with Favipiravir and other related strategies” (Bioorg Med Chem Lett, 2017).
